Measured values reported in patent US20230293478A1, “NITROGEN-CONTAINING ANALOGS OF SALINOMYCIN FOR USE IN ACUTE MYELOID LEUKEMIA” (Centre National de la Recherche Scientifique (CNRS), priority 2020, published 2023).

Legend:
[1] = test system: lysosomal iron in MOLM13 cells; assay: Lysosomal iron, RhoNoxM probe flow cytometry; type: cell-based, human
Method: Ironomycin (AM5) and AM23 were synthesized as previously described (Mai et al., 2017), venetoclax (ABT-199), biranapant and IDN-6556 are commercially available. Metformin and phenformin, were purchased from sigma (PHR1084 and PHR1573) and reconstituted freshly in culture medium. Turn-off Fe2+ probe (Petrat et al., 2002) was synthesized as previously reported (Muller et al., 2018), dose was 1 μM for 1 h for flow cytometry experiments. RhonoxM (Hirayarna et al., 2013) was synthesized as previously reported (Mai et al., 2017), dose was 1 μM, 1 h for flow cytometry experiments. Liproxstatin-1 (sigma SML1414, DMSO), ferrostatin (sigma SML0583, DMSO), RSL3 (sigma SML2234, DMSO), 6 aminonicotidamide (sigma A68203, DMSO), Z-VADfmk (R&D system FMK001, DMSO).

NB4 = assay: IC50 determination (resazurin), NB4; type: cell-based; conditions: Homo sapiens, NB-4; NB4 cell line, 72 hours
Method: (§1) Cells were seeded at a constant density prior to treatment in triplicate and treated with either ironomycin or DMSO over the indicated time period. Drug was refreshed at least every two days. Cells were stained with DAPI and live cell number was calculated using the BD FACSVerse (BD Biosciences). CellTitreGlo (Promega) assays were performed as per manufacturer's instructions in a 96 well plate format. To determine the half-maximal inhibitory concentration (IC50) for ironomycin, 24 h after seeding the cells at a constant density in triplicate, cells were treated with ironomcyin or DMSO for 72 hours. At day 3, after incubating the cells with 600 μM of resazurin for 6 h, fluorescence was measured at λex=530 nm and λem=590 nm, using a Microplate Reader (EnSpire, Perkin Elmer). Relative fluorescence units were converted to per cent of inhibition relative to controls on the same plate, and the data were fitted against a four-parameter logistic model to determine the IC50.

NOMO-1 = assay: IC50 determination (resazurin), NOMO-1; type: cell-based; conditions: Homo sapiens; NOMO-1 cell line, 72 hours
Method: as §1

KASUMI-1 = assay: IC50 determination (resazurin), KASUMI-1; type: cell-based; conditions: Homo sapiens; KASUMI-1 cell line, 72 hours
Method: as §1

[2] = test system: mitochondrial iron in MOLM13 cells; assay: ICP-MS iron on isolated mitochondria; type: cell-based, human; conditions: ICP-MS on isolated mitochondria after treatment
[3] = test system: MV4,11 cells transplanted into NSG mice; assay: AML xenograft model, survival; type: in vivo, mouse; conditions: 5 days/week for 4 weeks, single agent
Method: Ironomycin was dissolved in PBS+2.5% DMSO. […] Animals were euthanized at the completion of treatment.

K 562 = assay: IC50 determination (resazurin), K 562; type: cell-based; conditions: Homo sapiens, K562; K 562 cell line, 72 hours
Method: as §1

SKM-1 = assay: IC50 determination (resazurin), SKM-1; type: cell-based; conditions: Homo sapiens; SKM-1 cell line, 72 hours
Method: as §1

OCI-AML3 = assay: IC50 determination (resazurin), OCI-AML3; type: cell-based; conditions: Homo sapiens, OCI-AML-3; OCI-AML3 cell line, 72 hours
Method: as §1

[4] = test system: cleaved PARP1 and cleaved caspase 3 in MOLM-13 cell line; assay: Immunoblot of cleaved PARP1 and cleaved caspase 3; type: cell-based, human; conditions: 500 nM, 24 h
Method: Cells were lysed in 20 mM HEPES pIH7.9, 0.5 mM EDTA, 2% SDS plus 1× protease inhibitor cocktail (Roche) by brief sonication. Lysates were heated to 95° C. in SDS sample buffer with 50 mM DTT for 5 min, separated by SDS-PAGE and transferred to PVDF membrane (Millipore). Membranes were blocked in 5% milk or BSA in TBS +0.1% Tween-20, probed with the indicated antibodies, and reactive bands visualised using ECL Prime (GE).

AML cell lines = assay: Cell proliferation and PI cell death in AML cell lines; type: cell-based, human; conditions: all AML cell lines tested
Method: as §1
(§2) Cell death, cells were washed once with PBS and assessed using propidium iodide PI from staining (Sigma) according to manufacturer's instructions. Lipid peroxidation was assessed with BODIPYC11 staining (Thermo Fisher D3861). Cell were washed once with PBS and stained for 30 minutes in the dark at room temperature in 1 ml of 7.5 μM PBS solution, washed once and assessed according to manufacturer's instructions. […]

human AML cell lines = assay: IC50 determination across various human AML cell lines; type: cell-based; conditions: range over various human AML cell lines, 72 hours; read-out: Half maximal inhibitory concentration (IC50)
Method: as §1

[5] = test system: mitochondria in MV4; 11 cells; assay: Transmission electron microscopy of mitochondria; type: cell-based, human; conditions: 500 nM, 16 h
Method: Cells were fixed in 2% GA in 0.1M sodium cacodylate buffer for 2 hours at room temperature, rinsed with 0.1M na-cacodylaatbuffer (5×10 min), and posffixation was done with 1% Osmium tetroxide and 1.5% Potassium ferricyanide for 2 hours at 4C in the dark. After rinsing in milliQ water, cells were stained with 0.5% Uranylacetate in MQ (±PH 4) for 1 h at 4° C. Cells were scraped and embedded in low melting agarose before serial dehydration in ethanol followed by propylene oxide and embedding into epon-araldyte resin. After polymerisation of the resin at 65 C for 48 hours, ultrathin sections were cut on a Leica UCT ultramicrotome and sections stained with uranyl acetate and lead citrate. Sections were examined on a Jeol JEM-1400Plus transmission electron microscope equipped with a Matataki flash camera at 80 keV.

MOLM-13 = assay: IC50 determination (resazurin), MOLM-13; type: cell-based; conditions: Homo sapiens; MOLM-13 cell line, 72 hours
Method: as §1

WT MV4; 11 cell line [6] = assay: Cell death analysis (PI, Cell titer glow) in WT MV4;11; type: cell-based, human; conditions: 24 h
Method: as §1, §2

WT MV4; 11 cell line [7] = assay: PI cell death in medium with different glucose concentration; type: cell-based, human; conditions: 500 nM, 48 h
Method: (§3) Cell death, cells were washed once with PBS and assessed using propidium iodide PI from staining (Sigma) according to manufacturer's instructions. Lipid peroxidation was assessed with BODIPYC11 staining (Thermo Fisher D3861). Cell were washed once with PBS and stained for 30 minutes in the dark at room temperature in 1 ml of 7.5 μM PBS solution, washed once and assessed according to manufacturer's instructions. Mitochondrial ROS were assessed with mitosox red probe (thermofisher M36008) according to manufacturer's instructions. All flow cytometry analyses were performed on a LSR Fortessa X-20 flow cytometer (BD Biosciences) and all data analysed with FlowJo. Cell sorting was performed on a FACSAria Fusion 5 (BD Biosciences).

[8] = test system: mitochondrial ROS in MV4; 11 and OCI-AML3; assay: Mitochondrial ROS, Mitosox Red flow cytometry; type: cell-based, human; conditions: 500 nM, 24 hours
HEL 92.1.7 = assay: IC50 determination (resazurin), HEL 92.1.7; type: cell-based; conditions: Homo sapiens; HEL 92.1.7 cell line, 72 hours
Method: as §1

[9] = test system: lipid ROS in OCIAML3 and MOLM-13 cells; assay: Lipid peroxidation, C11 BODIPY 581/591 staining; type: cell-based, human; conditions: 500 nM, 48 hours
Method: as §3

KG1 = assay: IC50 determination (resazurin), KG1; type: cell-based; conditions: Homo sapiens, KG-1; KG1 cell line, 72 hours
Method: as §1

[10] = Mai et al., 2017; cited from earlier work
HL-60 = assay: IC50 determination (resazurin), HL-60; type: cell-based; conditions: Homo sapiens; HL-60 cell line, 72 hours
Method: as §1

MV4-11 = assay: IC50 determination (resazurin), MV4-11; type: cell-based; conditions: Homo sapiens; MV4-11 cell line, 72 hours
Method: as §1

[11] = test system: primary AML samples derived from patients with venetoclax resistant or refractory disease; assay: Primary patient synergy analysis (PI viability, Bliss); type: cell-based, human; conditions: monotherapy, 1 μM, 5 days, five primary samples
Method: Samples were collected from patients with AML treated at the Alfred Hospital after obtaining informed consent. Studies were conducted in accordance with the approved protocols through the Human Research Ethics Committee of the Alfred Hospital and the Declaration of Helsinki for all subjects. Primary AML cells were cultured in StemSpan SFEM (Stemcell Technologies) supplemented with 10 ng/mL IL-3, 10 ng/mL IL-6, 50 ng/mL SCF and 50 ng/mL FLT3L (all Peprotech) and 35 nM UM171 and 500 nM stemreginin (StemCell Technologies). For primary patient synergy analyses, 50,000 AML cells were plated in each well of a 96-well plate, and cultured with escalating doses of ironomycin and venetoclax for 5 days in medium conditions as described above. After 5 days, viability was assessed via propidium iodide staining and flow cytometry (BD FACSCanto). Synergy was determined using the Bliss synergy model.

## C#CCN[C@@H]1C=C[C@]2(O[C@H]([C@@H](CC)C(=O)[C@@H](C)[C@@H](O)[C@H](C)[C@@H]3O[C@@H]([C@@H](CC)C(=O)O)CC[C@@H]3C)[C@@H](C)C[C@H]2C)O[C@@]12CC[C@@](C)([C@H]1CC[C@](O)(CC)[C@H](C)O1)O2 [Ironomycin]
[1]
  lysosomal iron: increased lysosomal iron
NB4
  IC50: 47 nM
NOMO-1
  IC50: 30 nM
KASUMI-1
  IC50: 16 nM
[2]
  total iron in mitochondria: decrease in total iron into the mitochondria
[3]; ironomycin 1 mg/kg IP
  survival: did not result in any survival advantage
K 562
  IC50: 410 nM
SKM-1
  IC50: 45 nM
OCI-AML3
  IC50: 118 nM
[4]
  cleavage of caspase 3 and PARP1: did not cleaved caspase 3 nor PARP1
AML cell lines
  cell death (PI staining): rapid cell death
  proliferation: proliferation block in a dose dependent manner
Human AML cell lines
  IC50: 14 to 410 nM
[5]
  cristae structure: disturbed the cristae structure
MOLM-13
  IC50: 70 nM
WT MV4; 11 cell line [6]
  cell death: induce cell death
WT MV4; 11 cell line [7]; increased glucose concentration
  efficacy in killing AML cells: higher efficacy
WT MV4; 11 cell line [7]; low glucose conditions
  efficacy in killing AML cells: less efficient
[8]
  mitochondrial ROS: increased mitochondrial ROS
HEL 92.1.7
  IC50: 260 nM
[9]
  lipid peroxidation: induced a lipid peroxidation
KG1
  IC50: 14 nM
[10]
  potency relative to Salinomycin: ten times more potent
HL-60
  IC50: 26 nM
MV4-11
  IC50: 61 nM

## Venetoclax [reference compound]
[3]; venetoclax 75 mg/kg oral gavage
  survival: did not result in any survival advantage
WT MV4; 11 cell line [6]
  cell death: induce cell death
[11]
  impaired cell viability: 6-40%
